B1: daclizumab: anti-IL-2 receptor monoclonal antibody (antibody, chains of the INN, looked up, V domains shown)
VH: QVQLVQSGAEVKKPGSSVKVSCKASGYTFTSYRMHWVRQAPGQGLEWIGYINPSTGYTEYNQKFKDKATITADESTNTAYMELSSLRSEDTAVYYCARGGGVFDYWGQGTLVTVSS
VL: DIQMTQSPSTLSASVGDRVTITCSASSSISYMHWYQQKPGKAPKLLIYTTSNLASGVPARFSGSGSGTEFTLTISSLQPDDFATYYCHQRSTYPLTFGQGTKVEVK

What was measured:
Format in all cases: cell-based
[1] = test system: human CD4^+ and CD8^+ T cells; experiment: Western blot of p62, phospho-RAPTOR and BIM after 16-hr pre-incubation (FIGS. 11-13)
Experimental: For FIGS. 11-13, human CD4^+ and CD8^+ T cells were cultured using a 16-hr pre-incubation interval prior to the addition of 3/28 beads at the reduced ratio of 1:3 beads-to-T cells. As indicated in FIGS. 11-13, the various T cell cultures received different methods of mTOR inhibition (rapamycin at 1.0 μM; temsirolimus at 1.0 or 0.1 different conditions of exogenous IL-2 addition, and different conditions relative to addition of the anti-IL-2 receptor monoclonal antibody, daclizumab. After the 16-hr pre-incubation interval, cells were harvested from the T cell cultures, protein was isolated, and p62 (FIG. 11), phospho-RAPTOR (FIG. 12), or BIM (FIG. 13) and the housekeeper gene β-actin were quantified by western blot.

[2] = test system: T cells; experiment: FoxP3 and TBET intra-cellular expression in T cells cultured ex vivo, day 6 (FIGS. 1A-1B)
Experimental: T cells were cultured ex vivo, as indicated, using various ratios of anti-CD3, anti-CD28 beads to T cells (1:1 or 1:12); the mTOR inhibitor temsirolimus (1 μM); without or with the anti-IL-2 receptor monoclonal antibody daclizumab (5 or 50 μg/ml); and either Th1 polarization cytokines (IFN-alpha; 10,000 IU/ml) or control regulatory T cell polarization (IL-2 plus TGF-β). At day 6 of culture, the T cells were evaluated for intra-cellular expression of the regulatory T cell transcription factor FoxP3 and the Th1 transcription factor TBET. (FIGS. 1A-1B).

[3] = test system: CD4^+ and CD8^+ T cells; experiment: Cytokine secretion potential of cultured T cells by Luminex, day 6 and day 13 (FIGS. 3A-3B)
Experimental: To evaluate this, we tested cytokine secretion potential of the manufactured T cells at the end of cell culture (day 6) and then again one week after ex vivo expansion after maximal co-stimulation (3/28 bead-to-T cell ratio, 3:1) and propagation in media devoid of any inhibitors. In FIGS. 3A-3B, CD4^+ and CD8^+ T cells were purified and cultured for 6-days either with or without a 16-hr interval of pre-incubation prior to co-stimulation (1:1 ratio of 3/28 beads-to-T cells). As indicated, temsirolimus was added at concentrations of either 1.0 or 0.1 μM; all cultures were supplemented with IFN-α (10,000 IU/ml) and daclizumab (50 μg/ml). On day 6 of culture, the resultant T cells were co-stimulated for 24 hr using a 3:1 ratio of 3/28 beads; the supernatant was tested for cytokine content by Luminex assay (results are described as pg per ml of cytokine secreted per million cells per 24 hr). […] N.A, abbreviation indicates not applicable (insufficient T cell yield to perform assay).

[4] = TREG-permissive culture: bead ratio 1:12, no IFN-α, exogenous IL-2 plus TGF-β
[5] = pre-incubation plus high-dose temsirolimus, compared with other conditions
[6] = temsirolimus 1.0 μM, after 24 hr maximal co-stimulation, with or without overnight pre-incubation

Molecule	phospho-RAPTOR ([1]; high-dose temsirolimus compared to low-dose temsirolimus or high-dose rapamycin)	autophagy marker p62 ([1]; pre-incubation, 1:3 beads, daclizumab, rapamycin 1 μM or temsirolimus 1.0 or 0.1)	FoxP3 expression [2, 4]	expression of TBET ([2]; combination of temsirolimus and anti-IL-2 receptor monoclonal antibody)	FoxP3 expression ([2]; exogenous IL-2 added in combination with IFN-α)	T cell expression of FoxP3 ([2]; temsirolimus 1.0 μM with IFN-α, relative to day 0 input T cells)	day 13 T cell IFN-γ secretion [3, 5]	day 13 T cell TNF-α secretion [3, 5]	day 6 T cell cytokine secretion potential ([3]; temsirolimus 0.1 μM)	day 6 T cell IFN-γ secretion [3, 6]	day 6 T cell TNF-α secretion [3, 6]	TBET expression ([2]; 50 μg/ml daclizumab compared with 5 μg/ml)	FoxP3 expression ([2]; IL-2 receptor blockade added to temsirolimus and IFN-α, 50 μg/ml more effective than 5 μg/ml)
CO[C@H]1C[C@@H]2CC[C@@H](C)[C@@](O)(O2)C(=O)C(=O)N2CCCC[C@H]2C(=O)O[C@H]([C@H](C)C[C@@H]2CC[C@@H](OC(=O)C(C)(CO)CO)[C@H](OC)C2)CC(=O)[C@H](C)/C=C(\C)[C@@H](O)[C@@H](OC)C(=O)[C@H](C)C[C@H](C)/C=C/C=C/C=C/1C [temsirolimus]	lower levels	autophagy could be realized	not effective	increased expression	not effective	reduced	highest	highest	only partially reduced	very low levels	very low levels		
B1			not effective									higher degree	further reduced

— patent US20210268029A1, “METHODS FOR TREATING CANCER WITH MANUFACTURED T CELLS” (RAPA THERAPEUTICS, LLC, priority 2018, published 2021)
